What follows are compounds tested against T1, human NK1 receptor (Homo sapiens, UniProt P25103) (assay: Affinity for the NK1 receptor, [3H]substance P displacement binding assay). Conditions: affinity to the NK-1 receptor; human NK1 receptors in CHO cells; [3H]substance P 0.6 nM; 60 min at room temperature.
T1 construct: expressed in transfected cells; host or cells: CHO cells infected using the Semliki virus expression system; membrane suspension
Experimental: The affinity of test compounds for the NK1 receptor was evaluated at human NK1 receptors in CHO cells infected with the human NK1 receptor (using the Semliki virus expression system) and radiolabelled with [^3H]substance P (final concentration 0.6 nM). Binding assays were performed in HEPES buffer (50 mM, pH 7.4) containing BSA (0.04%) leupeptin (8 μg/ml), MnCl2 (3 mM) and phosphoramidon (2 μM). Binding assays consisted of 250 μl of membrane suspension (1.25×10^5 cells/assay tube), […] of displacing agent and 125 μl of [^3H]substance P. Displacement curves were determined with at least seven concentrations of the compound. The assay tubes were incubated for 60 min at room temperature after which time the tube contents were rapidly filtered under vacuum through GF/C filters presoaked for 60 min with PEI (0.3%) with 2×2 ml washes of HEPES buffer (50 mM, pH 7.4). The radioactivity retained on the filters was measured by scintillation counting. All assays were performed in triplicate in at least 2 separate experiments.

T1 sequence (P25103 whole entry): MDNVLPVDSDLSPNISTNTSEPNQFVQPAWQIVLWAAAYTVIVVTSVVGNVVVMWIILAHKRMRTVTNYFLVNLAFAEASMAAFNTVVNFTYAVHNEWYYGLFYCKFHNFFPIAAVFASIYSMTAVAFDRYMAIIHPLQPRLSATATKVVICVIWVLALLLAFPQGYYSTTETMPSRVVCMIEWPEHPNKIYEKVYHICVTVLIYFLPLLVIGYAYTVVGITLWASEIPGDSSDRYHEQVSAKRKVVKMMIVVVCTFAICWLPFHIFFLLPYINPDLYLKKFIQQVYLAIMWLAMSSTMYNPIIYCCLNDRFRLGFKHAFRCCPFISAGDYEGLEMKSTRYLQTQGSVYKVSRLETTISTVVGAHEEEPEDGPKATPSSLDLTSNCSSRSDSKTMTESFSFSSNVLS

Compound	pKi	Ki
4-(2-Methoxy-phenoxy)-2-(4-methyl-piperazin-1-yl)-pyrimidine-5-carboxylic acid (3,5-bis-trifluoromethyl-benzyl)-methyl-amide [Example 29]	6.50	–
CSc1ncc(C(=O)N(C)Cc2cc(C(F)(F)F)cc(C(F)(F)F)c2)c(Oc2ccccc2C)n1 [Example 1, 2-Methylsulfanyl-4-o-tolyloxy-pyrimidine-5-carboxylic acid (3,5-bis-trifluoromethyl-benzyl)-methyl-amide]	–	0.0417 µM
Cc1ccccc1Oc1nc(N2CCN(C)CC2)ncc1C(=O)N(C)Cc1cc(C(F)(F)F)cc(C(F)(F)F)c1 [Example 4, 2-(4-Methyl-piperazin-1-yl)-4-o-tolyloxy-pyrimidine-5-carboxylic acid (3,5-bis-trifluoromethyl-benzyl)-methyl-amide]	–	0.00288 µM
Cc1ccccc1Oc1nc(OCCN2CCOCC2)ncc1C(=O)N(C)Cc1cc(C(F)(F)F)cc(C(F)(F)F)c1 [Example 7, 2-(2-Morpholin-4-yl-ethoxy)-4-o-tolyloxy-pyrimidine-5-carboxylic acid (3,5-bis-trifluoromethyl-benzyl)-methyl-amide]	–	0.00468 µM
COc1cc(CN(C)C(=O)c2cnc(N3CCN(C)CC3)nc2Oc2ccccc2C)cc(OC)c1 [Example 11, 2-(4-Methyl-piperazin-1-yl)-4-o-tolyloxy-pyrimidine-5-carboxylic acid (3,5-dimethoxy-benzyl)-methyl-amide]	–	0.17 µM
Cc1cc(C)cc(CN(C)C(=O)c2cnc(N3CCN(C)CC3)nc2Oc2ccccc2C)c1 [Example 15, 2-(4-Methyl-piperazin-1-yl)-4-o-tolyloxy-pyrimidine-5-carboxylic acid (3,5-dimethyl-benzyl)-methyl-amide]	–	0.0282 µM
Cc1ccccc1Oc1nc(N2CCN(C)CC2)ncc1C(=O)NCc1cc(Cl)cc(Cl)c1 [Example 19, 2-(4-Methyl-piperazin-1-yl)-4-o-tolyloxy-pyrimidine-5-carboxylic acid 3,5-dichloro-benzylamide]	–	0.195 µM
CSc1ncc(C(=O)N(C)Cc2cc(C(F)(F)F)cc(C(F)(F)F)c2)c(Oc2ccccc2)n1 [Example 23, 2-Methylsulfanyl-4-phenoxy-pyrimidine-5-carboxylic acid (3,5-bis-trifluoromethyl-benzyl)-methyl-amide]	–	0.0977 µM
Cc1ccccc1Oc1nc(-c2ccncc2)ncc1C(=O)N(C)Cc1cc(C(F)(F)F)cc(C(F)(F)F)c1 [Example 39, 2-Pyridin-4-yl-4-o-tolyloxy-pyrimidine-5-carboxylic acid (3,5-bis-trifluoromethyl-benzyl)-methyl-amide]	–	0.0162 µM
Cc1ccccc1Oc1nc(N2CCSCC2)ncc1C(=O)N(C)Cc1cc(C(F)(F)F)cc(C(F)(F)F)c1 [Example 44, 2-Thiomorpholin-4-yl-4-o-tolyloxy-pyrimidine-5-carboxylic acid (3,5-bis-trifluoromethyl-benzyl)-methyl-amide]	–	0.02 µM
Cc1ccccc1Oc1nc(N2CCN(C)CC2)ncc1N(C)C(=O)C(C)(C)c1cc(C(F)(F)F)cc(C(F)(F)F)c1 [Example 49, 2-(3,5-Bis-trifluoromethyl-phenyl)-N-methyl-N-[2-(4-methyl-piperazin-1-yl)-4-o-tolyloxy-pyrimidin-5-yl]-isobutyramide]	–	0.000912 µM
Cc1ccccc1Oc1nc(OCCN2CCOCC2)ncc1N(C)C(=O)C(C)(C)c1cc(C(F)(F)F)cc(C(F)(F)F)c1 [Example 52, 2-(3,5-Bis-trifluoromethyl-phenyl)-N-methyl-N-[2-(2-morpholin-4-yl-ethoxy)-4-o-tolyloxy-pyrimidin-5-yl]-isobutyramide]	–	0.000794 µM
CN(C)CCCOc1ncc(N(C)C(=O)C(C)(C)c2cc(C(F)(F)F)cc(C(F)(F)F)c2)c(Oc2ccc(F)cc2)n1 [Example 63, 2-(3,5-Bis-trifluoromethyl-phenyl)-N-[2-(3-dimethylamino-propoxy)-4-(4-fluoro-phenoxy)-pyrimidin-5-yl]-N-methyl-isobutyramide]	–	0.00955 µM
Cc1ccccc1Oc1nc(-c2ccccc2)ncc1N(C)C(=O)C(C)(C)c1cc(C(F)(F)F)cc(C(F)(F)F)c1 [Example 73, 2-(3,5-Bis-trifluoromethyl-phenyl)-N-methyl-N-(2-phenyl-4-o-tolyloxy-pyrimidin-5-yl)-isobutyramide]	–	0.0324 µM

From patent US6787539B2, “2,4,5,-trisubstituted pyrimidine derivatives” (Hoffmann-La Roche Inc., priority 2000, dated 2004)
